Laboratory results as given in PMC8304660, “Identification of Erythromycin and Clarithromycin Metabolites Formed in Chicken Liver Microsomes Using Liquid Chromatography–High-Resolution Mass Spectrometry” (Foods, 2021).
Values joined by “and” are separate entries in the source; they are usually repeats but may differ in a detail not shown here. Identical values can stand only once.

Columns and labels:
[1] = In vitro incubation in chicken liver microsomes with or without NADPH, LC/ESI-HR-MS analysis; format: in vitro ADME; conditions: for Remaining Content −Cofactor, Mean ± SD (%) / Remaining Content (%) −Cofactor, 1 / Remaining Content (%) −Cofactor, 2 / Remaining Content (%) −Cofactor, 3 / Remaining Content +Cofactor, Mean ± SD (%) / Remaining Content (%) +Cofactor, 1 / Remaining Content (%) +Cofactor, 2 / Remaining Content (%) +Cofactor, 3: chicken liver microsomes (CLM), 60 min vs 0 min incubation; for Remaining Content −Cofactor, Mean ± SD (%) / Remaining Content (%) −Cofactor, 1 / Remaining Content (%) −Cofactor, 2 / Remaining Content (%) −Cofactor, 3: no NADPH (control); for Remaining Content −Cofactor, Mean ± SD (%) / Remaining Content +Cofactor, Mean ± SD (%): mean of 3; for Remaining Content (%) −Cofactor, 1 / Remaining Content (%) +Cofactor, 1: replicate 1; for Remaining Content (%) −Cofactor, 2 / Remaining Content (%) +Cofactor, 2: replicate 2; for Remaining Content (%) −Cofactor, 3 / Remaining Content (%) +Cofactor, 3: replicate 3; for Remaining Content +Cofactor, Mean ± SD (%) / Remaining Content (%) +Cofactor, 1 / Remaining Content (%) +Cofactor, 2 / Remaining Content (%) +Cofactor, 3: with NADPH cofactor; on Remaining Content (%) +Cofactor, 2: tested at 1 µM; on Remaining Content (%) +Cofactor, 3: tested at 1 µM; on Remaining Content (%) −Cofactor, 2: tested at 1 µM; on Remaining Content (%) −Cofactor, 3: tested at 1 µM; on Remaining Content +Cofactor, Mean ± SD (%): tested at 1 µM; on Remaining Content −Cofactor, Mean ± SD (%): tested at 1 µM
Method: The incubation system (100 μL) contained 65 μL of potassium phosphate buffer (0.1 M, pH 7.4), 20 μL of chicken liver microsomes (5 mg/mL), 5 μL of a compound (20 μM) and […]. After a 5 min preincubation period at 37 °C, the reaction was started by introducing 10 μL of NADPH (10 mM) as the cofactor solution. The final study groups were divided into cofactor and no cofactor (control) groups. After preincubation for 5 min, 10 μL of potassium phosphate buffer (0.1 M, pH 7.4) was added to the control group. […] For 0 min samples, the reaction was quenched immediately after the 5-min preincubation, followed by the addition of 10 μL of NADPH (10 mM) and 10 μL of potassium phosphate buffer (0.1 M, pH 7.4) to the cofactor and control groups, respectively. Following brief sonication (5 min) and vortexing (5 min), the mixtures were centrifuged for 30 min at 3000 rpm and 4 °C. The supernatant was transferred to an Agilent 96-well plate and then analysed on an Agilent 6530 Q-TOF LC-MS/MS instrument.
Liquid chromatographic separation and mass spectrometric detection were performed on an Agilent 1200 series HPLC system and an Agilent 6530 Q-TOF LC-MS/MS system equipped with a dual AJS ESI ion source. Chromatographic separation was performed on an Agilent Eclipse Plus C18 column (100 mm × 2.1 mm; i.d. 3.5 µm) by gradient elution with a mobile phase consisting of 0.1 vol.% formic acid in water (A) and ACN (B) at 40 °C: 0–2 min, 5 vol.% B; 2–3 min, 50 vol.% B; 3–4 min, 75 vol.% B; and 4-5 min, 5 vol.% B. The injection volume was 5 μL with a flow rate of 0.4 mL/min. Before sample injection, the instrument was equilibrated under the initial gradient conditions (A:B = 95:5, v/v) and the above-mentioned column temperature and flow rate conditions. HR-MS detection was carried out in positive ionization mode with the following ion source parameters: capillary voltage, 4000 V; drying gas, 12 L/min and 325 °C; nebulizer gas, 35 psi; and sheath gas, 10 L/min and 350 °C. Mass spectra were acquired in positive ion auto MS/MS mode (F, 100 V; CE, 0 eV) with a full scan range of m/z (100–1000) and a mass scan rate of 5 spectra/s. The mass spectrometer was run in an extended dynamic range mode with a mass range of m/z 50–3200. The mass resolving power was greater than 12,000 FWHM at m/z 1552.
The data were analysed using Agilent MassHunter Quantitative Analysis software (version B.05.00) and Agilent MassHunter Metabolite ID software (version B.04.00) (Santa Clara, CA, USA). The remaining content was evaluated by dividing the ratio of the response of the target compound to the response of the IS at 60 min of incubation by the ratio of the response of the target compound to the response of the IS at 0 min of incubation in the cofactor group or control group.

CYP3A4 = tested on: CYP3A4; design: method as in PMID 1732074, PMID 1976065; conditions: midazolam as the CYP3A4 substrate; cited from earlier work
P-GP = tested on: P-GP; design: method as in PMID 1732074, PMID 1976065; conditions: cited from earlier work

O=C1CC2(CCCC2)CC(=O)N1CCCCN1CCN(c2ncccn2)CC1 [BUS, buspirone]
Remaining Content −Cofactor, Mean ± SD (%) [1]: 81.5 ± 13.8% | Remaining Content (%) −Cofactor, 1 [1]: 87.5% | Remaining Content (%) −Cofactor, 2 [1]: 65.7% | Remaining Content (%) −Cofactor, 3 [1]: 91.2% | Remaining Content +Cofactor, Mean ± SD (%) [1]: 48.9% and 48.9 ± 4.5% | Remaining Content (%) +Cofactor, 1 [1]: 46.4% | Remaining Content (%) +Cofactor, 2 [1]: 46.2% | Remaining Content (%) +Cofactor, 3 [1]: 54.1%

CC[C@H]1OC(=O)[C@H](C)[C@@H](O[C@H]2C[C@@](C)(OC)[C@@H](O)[C@H](C)O2)[C@H](C)[C@@H](O[C@@H]2O[C@H](C)C[C@H](N(C)C)[C@H]2O)[C@](C)(OC)C[C@@H](C)C(=O)[C@H](C)[C@@H](O)[C@]1(C)O [CLA, clarithromycin]
Remaining Content −Cofactor, Mean ± SD (%) [1]: 86.6 ± 12.3% | Remaining Content (%) −Cofactor, 1 [1]: 100.7% | Remaining Content (%) −Cofactor, 2 [1]: 78.7% | Remaining Content (%) −Cofactor, 3 [1]: 80.3% | Remaining Content +Cofactor, Mean ± SD (%) [1]: 89.8% and 89.8 ± 21.5% | Remaining Content (%) +Cofactor, 1 [1]: 77.5% | Remaining Content (%) +Cofactor, 2 [1]: 77.3% | Remaining Content (%) +Cofactor, 3 [1]: 114.7% | Formation of N-desmethyl metabolite ([1]; chicken liver microsomes, incubation for 60 min with NADPH cofactor, extracted ion chromatograms): cannot produce N-desmethyl-clarithromycin | Strength of drug interaction (CYP3A4): strong | Inhibition of the activity of the drug transporter P-GP (P-GP): do not inhibit

CC[C@H]1OC(=O)[C@H](C)[C@@H](O[C@H]2C[C@@](C)(OC)[C@@H](O)[C@H](C)O2)[C@H](C)[C@@H](O[C@@H]2O[C@H](C)C[C@H](N(C)C)[C@H]2O)[C@](C)(O)C[C@@H](C)C(=O)[C@H](C)[C@@H](O)[C@]1(C)O [ERY, erythromycin A]
Remaining Content −Cofactor, Mean ± SD (%) [1]: 94.8 ± 6.3% | Remaining Content (%) −Cofactor, 1 [1]: 99.0% | Remaining Content (%) −Cofactor, 2 [1]: 97.9% | Remaining Content (%) −Cofactor, 3 [1]: 87.6% | Remaining Content +Cofactor, Mean ± SD (%) [1]: 86.6% and 86.6 ± 6.5% | Remaining Content (%) +Cofactor, 1 [1]: 82.6% | Remaining Content (%) +Cofactor, 2 [1]: 83.1% | Remaining Content (%) +Cofactor, 3 [1]: 94.1%
